Laboratory results published in patent US9611278B2 (Merck Sharp & Dohme Corp., priority 2013, dated 2017).

Legend:
[1] = test system: Spontaneously hypertensive rats (SHR); assay: Acute Efficacy in Spontaneously Hypertensive Rats (SHR); type: in vivo, rat; details: single oral dose
Source text: Spontaneously hypertensive rats (SHR, male, Charles River) were implanted with DSI TA11PA-C40 telemetry device (Data Sciences, Inc., St. Paul, Minn.) under isoflurane or ketamine/metomidine anesthesia. The telemetry unit catheter was inserted into the descending aorta via the femoral artery and the telemetry device was implanted subcutaneously in the left flank area. Animals were allowed to recover from surgery for 14 days before the start of any studies. Blood pressure, heart rate, and activity signals from conscious, freely moving rats were recorded continuously for 30 seconds every 10 min. On the day prior to administration of compound, a single oral dose of vehicle (10% transcutol/20% Cremophor/70% water) was administered to all animals to establish baseline control data. The blood pressure lowering efficacy of compound (PO) or vehicle was evaluated following a single oral gavage. Data were collected as hourly averages, and changes in blood pressure were calculated by subtracting control baseline data on an hourly basis. Animals were maintained on normal diet with a 12 hour light-dark cycle.
Maximum peak decreases of systolic blood pressure (SBP) in SHR at a particular P.O. dose (mpk milligrams per kilogram) for the following representative compounds are provided in Table 9. Category A=SBP in SHRs <15 mmHg; Category B=SBP in SHRs 15-25 mmHg; Category C=SBP in SHRs >25 mmHg

[2] = molecular target: T1, sGC α1/β1 heterodimer stably expressed in CHO-K1 cells (CHO-K1/sGC) (Homo sapiens, UniProt Q02108+Q02153); assay: Cell-based sGC Functional Assay (CASA Assay); details: for Emax: CHO-K1, activation as percentage of maximum cGMP production of Compound A (set to 100%), read-out: % Act.; for EC50: inflection point of cGMP generation in CHO-K1/sGC cells, 4P fit, 1 hr at 37° C., read-out: IP
T1 construct: expressed in transfected cells
T1 sequence (Q02108 1-690): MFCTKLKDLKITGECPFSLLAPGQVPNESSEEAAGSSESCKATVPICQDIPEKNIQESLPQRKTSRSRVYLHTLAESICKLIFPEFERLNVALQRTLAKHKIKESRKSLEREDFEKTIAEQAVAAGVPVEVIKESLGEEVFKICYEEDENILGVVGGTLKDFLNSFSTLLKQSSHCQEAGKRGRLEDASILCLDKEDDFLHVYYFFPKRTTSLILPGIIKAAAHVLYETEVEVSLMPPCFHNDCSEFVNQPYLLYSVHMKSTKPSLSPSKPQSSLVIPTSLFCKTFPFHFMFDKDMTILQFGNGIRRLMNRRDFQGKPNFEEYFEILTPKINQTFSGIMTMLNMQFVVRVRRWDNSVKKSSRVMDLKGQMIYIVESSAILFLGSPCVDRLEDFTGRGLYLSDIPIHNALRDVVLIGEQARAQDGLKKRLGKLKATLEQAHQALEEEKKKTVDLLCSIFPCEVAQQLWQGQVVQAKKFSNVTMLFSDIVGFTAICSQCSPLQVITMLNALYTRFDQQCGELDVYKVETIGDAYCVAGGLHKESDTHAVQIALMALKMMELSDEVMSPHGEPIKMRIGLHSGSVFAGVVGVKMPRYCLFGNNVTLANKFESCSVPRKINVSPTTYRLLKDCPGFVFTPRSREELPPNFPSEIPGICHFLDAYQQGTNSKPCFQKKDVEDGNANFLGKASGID
T1 sequence (Q02153 1-619): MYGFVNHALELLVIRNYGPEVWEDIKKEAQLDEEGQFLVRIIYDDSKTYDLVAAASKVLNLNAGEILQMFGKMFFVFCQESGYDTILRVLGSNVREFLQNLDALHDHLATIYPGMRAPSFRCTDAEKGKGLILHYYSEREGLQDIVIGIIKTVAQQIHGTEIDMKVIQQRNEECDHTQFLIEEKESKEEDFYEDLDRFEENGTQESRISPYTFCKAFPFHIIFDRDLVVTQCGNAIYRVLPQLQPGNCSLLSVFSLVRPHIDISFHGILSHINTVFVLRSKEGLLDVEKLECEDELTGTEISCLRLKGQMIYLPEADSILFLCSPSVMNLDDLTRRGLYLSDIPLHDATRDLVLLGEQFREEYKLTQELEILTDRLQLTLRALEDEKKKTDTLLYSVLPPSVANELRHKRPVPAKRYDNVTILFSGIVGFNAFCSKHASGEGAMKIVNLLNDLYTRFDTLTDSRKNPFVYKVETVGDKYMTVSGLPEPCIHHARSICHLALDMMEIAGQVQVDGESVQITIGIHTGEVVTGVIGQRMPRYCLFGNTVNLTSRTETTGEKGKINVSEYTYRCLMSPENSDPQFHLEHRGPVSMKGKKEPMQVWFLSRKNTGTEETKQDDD
How it was run: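 CHO-K1 cells stably expressing human sGC α1/β1 were incubated with compound for 1 h at 37 °C in buffer with 0.5 mM IBMX and 2.5% DMSO, with or without 1 μM DETA-NO. Intracellular cGMP was read by HTRF and expressed as percentage of maximal activation by reference activator Compound A. Values came from a 4-parameter fit.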

Emax [2] [%] | EC50 [2] [nM] | Compound | Category: maximum peak decrease of systolic blood pressure (SBP) in SHR ([1]; P.O. 1 mpk) | Category: maximum peak decrease of systolic blood pressure (SBP) in SHR ([1]; P.O. 0.3 mpk) | Category: maximum peak decrease of systolic blood pressure (SBP) in SHR ([1]; P.O. 3 mpk)
93 | 229 | [2H]C([2H])([2H])n1ncc2c(-c3nc(N)c4c(n3)NC(=O)C4(c3cn(C)nn3)C3CC3)nc(CCC(F)(F)C(F)(F)F)nc21 (single isomer, unassigned) [Example 54, 4-Amino-5-cyclopropyl-5-(1-methyl-1H-1,2,3-triazol-4-yl)-2-(1-(methyl-d3)-6-(3,3,4,4,4-pentafluorobutyl)-1H-pyrazolo[3,4-d]pyrimidin-4-yl)-5,7-dihydro-6H-pyrrolo[2,3-d]pyrimidin-6-one] | B (Category B=SBP in SHRs 15-25 mmHg) | – | –
118 | 251 | Cn1cc(C2(C3CC3)C(=O)Nc3nc(-c4nc(CCC(F)(F)C(F)(F)F)nc5c4cnn5C)nc(N)c32)nn1 (single isomer, unassigned) [Example 55, 4-Amino-5-cyclopropyl-5-(1-methyl-1H-1,2,3-triazol-4-yl)-2-(1-methyl-6-(3,3,4,4,4-pentafluorobutyl)-1H-pyrazolo[3,4-d]pyrimidin-4-yl)-5,7-dihydro-6H-pyrrolo[2,3-d]pyrimidin-6-one] | B (Category B=SBP in SHRs 15-25 mmHg) | – | –
126 | 1020 | CC(C)n1cc(C2(C)C(=O)Nc3nc(-c4nc(CCC(F)(F)C(F)(F)F)nc5c4cnn5C)nc(N)c32)nn1 (single isomer, unassigned) [Example 56, 4-Amino-5-(1-isopropyl-1H-1,2,3-triazol-4-yl)-5-methyl-2-(1-methyl-6-(3,3,4,4,4-pentafluorobutyl)-1H-pyrazolo[3,4-d]pyrimidin-4-yl)-5,7-dihydro-6H-pyrrolo[2,3-d]pyrimidin-6-one] | C (Category C=SBP in SHRs >25 mmHg) | – | –
108 | 327 | CCn1cc(C2(CC)C(=O)Nc3nc(-c4nc(CCC(F)(F)C(F)(F)F)nc5c4cnn5C)nc(N)c32)nn1 (single isomer, unassigned) [Example 66, 4-Amino-5-ethyl-5-(1-ethyl-1H-1,2,3-triazol-4-yl)-2-(1-methyl-6-(3,3,4,4,4-pentafluorobutyl)-1H-pyrazolo[3,4-d]pyrimidin-4-yl)-5,7-dihydro-6H-pyrrolo[2,3-d]pyrimidin-6-one] | B (Category B=SBP in SHRs 15-25 mmHg) | – | –
105 | 259 | CCn1cc(C2(C)C(=O)Nc3nc(-c4nc(CCC(F)(F)C(F)(F)F)nc5c4cnn5C)nc(N)c32)nn1 (single isomer, unassigned) [Example 69, 4-Amino-5-(1-ethyl-1H-1,2,3-triazol-4-yl)-5-methyl-2-(1-methyl-6-(3,3,4,4,4-pentafluorobutyl)-1H-pyrazolo[3,4-d]pyrimidin-4-yl)-5,7-dihydro-6H-pyrrolo[2,3-d]pyrimidin-6-one] | C (Category C=SBP in SHRs >25 mmHg) | – | –
111 | 365 | Cn1ncc2c(-c3nc(N)c4c(n3)NC(=O)C4(C)n3cnnn3)nc(CCC(F)(F)C(F)(F)F)nc21 (single isomer, unassigned) [Example 84, 4-Amino-5-methyl-2-(1-methyl-6-(3,3,4,4,4-pentafluorobutyl)-1H-pyrazolo[3,4-d]pyrimidin-4-yl)-5-(1H-tetrazol-1-yl)-5,7-dihydro-6H-pyrrolo[2,3-d]pyrimidin-6-one] | A (Category A=SBP in SHRs <15 mmHg) | – | –
93 | 991 | [2H]C([2H])([2H])n1ncc2c(-c3nc(N)c4c(n3)NC(=O)C4(c3nnnn3C)C3CC3)nc(CCC(F)(F)C(F)(F)F)nc21 (stereo not shown) [Example 25, 4-Amino-5-cyclopropyl-5-(1-methyl-1H-tetrazol-5-yl)-2-(1-(methyl-d3)-6-(3,3,4,4,4-pentafluorobutyl)-1H-pyrazolo[3,4-d]pyrimidin-4-yl)-5,7-dihydro-6H-pyrrolo[2,3-d]pyrimidin-6-one] | – | – | C (Category C=SBP in SHRs >25 mmHg)

Second part, the molecule before the results:

Compound | Emax [2] [%] | EC50 [2] [nM] | Category: maximum peak decrease of systolic blood pressure (SBP) in SHR ([1]; P.O. 1 mpk) | Category: maximum peak decrease of systolic blood pressure (SBP) in SHR ([1]; P.O. 0.3 mpk) | Category: maximum peak decrease of systolic blood pressure (SBP) in SHR ([1]; P.O. 3 mpk)
Cn1ncc2c(-c3nc(N)c4c(n3)NC(=O)C4(C)c3ccc(F)cn3)nc(CCC(F)(F)C(F)(F)F)nc21 (stereo not shown) [Example 1, 4-Amino-5-(5-fluoropyridin-2-yl)-5-methyl-2-(1-methyl-6-(3,3,4,4,4-pentafluorobutyl)-1H-pyrazolo[3,4-d]pyrimidin-4-yl)-5H-pyrrolo[2,3-d]pyrimidin-6(7H)-one] | 123 | 55 | – | C (Category C=SBP in SHRs >25 mmHg) | –
Cn1ncc2c(-c3nc(N)c4c(n3)NC(=O)C4(C)c3ccc(F)cn3)nc(CC3CC(F)(F)C3)nc21 (stereo not shown) [Example 3, 4-Amino-2-(6-((3,3-difluorocyclobutyl)methyl)-1-methyl-1H-pyrazolo[3,4-d]pyrimidin-4-yl)-5-(5-fluoropyridin-2-yl)-5-methyl-5,7-dihydro-6H-pyrrolo[2,3-d]pyrimidin-6-one] | 117 | 104 | – | C (Category C=SBP in SHRs >25 mmHg) | –
Cn1ncc2c(-c3nc(N)c4c(n3)NC(=O)C4(C)c3ccc(F)cn3)nc(CCCC(F)(F)F)nc21 (stereo not shown) [Example 4, 4-Amino-5-(5-fluoropyridin-2-yl)-5-methyl-2-(1-methyl-6-(4,4,4-trifluorobutyl)-1H-pyrazolo[3,4-d]pyrimidin-4-yl)-5H-pyrrolo[2,3-d]pyrimidin-6(7H)-one] | 115 | 54 | – | B (Category B=SBP in SHRs 15-25 mmHg) | –
[2H]C([2H])([2H])n1ncc2c(-c3nc(N)c4c(n3)NC(=O)C4(C)c3noc(C)n3)nc(CCC(F)(F)C(F)(F)F)nc21 (stereo not shown) [Example 19, 4-Amino-5-methyl-5-(5-methyl-1,2,4-oxadiazol-3-yl)-2-(1-(methyl-d3)-6-(3,3,4,4,4-pentafluorobutyl)-1H-pyrazolo[3,4-d]pyrimidin-4-yl)-5,7-dihydro-6H-pyrrolo[2,3-d]pyrimidin-6-one] | 157 | 225 | C (Category C=SBP in SHRs >25 mmHg) | – | –
[2H]C([2H])([2H])n1ncc2c(-c3nc(N)c4c(n3)NC(=O)C4(c3nnc(C)o3)C3CC3)nc(CCC(F)(F)C(F)(F)F)nc21 (stereo not shown) [Example 40, 4-Amino-5-cyclopropyl-5-(5-methyl-1,3,4-oxadiazol-2-yl)-2-(1-(methyl-d3)-6-(3,3,4,4,4-pentafluorobutyl)-1H-pyrazolo[3,4-d]pyrimidin-4-yl)-5,7-dihydro-6H-pyrrolo[2,3-d]pyrimidin-6-one] | – | – | C (Category C=SBP in SHRs >25 mmHg) | – | –
